Source: patent US20150272944A1, “NOVEL TRIGLYCERIDE REDUCING AGENT” (KOWA COMPANY, LTD., priority 2005, published 2015)
Where two headings read alike, the source gives them in different places.

Assays:
[1] = Plasma TG lowering effect in rats after 14 days repeated oral administration, blood taken after 22-hours fasting; format: in vivo, Wistar rat; details: single agent alone, rat, pitavastatin calcium 10 mg/kg, K-134 or cilostazol 100 mg/kg
Description: To test effects of combination administration of the said agents, rats were used for the experiment. […] The vertical axis in FIG. 1 indicates concentration of plasma triglyceride (TG) (mg/dL). Administration groups: control; pitavastatin calcium (referred to as pitavastatin) alone; K-134 alone; cilostazol alone; combination of pitavastatin calcium (referred to as pitavastatin) and K-134; and combination of pitavastatin calcium (referred to as pitavastatin) and cilostazol, are listed from left to right.
Plasma TG lowering effect when pitavastatin calcium was administered in combination with K-134 or cilostazol was measured according to the following method 1-4.
A 7-week-old Wistar rat (CLEA Japan, Inc.) was housed in an animal room where light/dark cycle (light period with room lighting from 7.00 to 19.00), temperature of 23±3° C., and humidity of 55±15% were maintained through the experimental period, and solid feed (CLEA Japan, Inc.) and tap water were consumed freely.
Pitavastatin calcium, K-134 and cilostazol were each suspended in aqueous solution (1.0 mass %) of hydroxypropyl methyl cellulose (Shin-Etsu Chemical Co., Ltd.) and prepared in order that the administration dose was 1 mL/kg. The suspension was stored in a colored bottle and refrigerated at 4° C. Preparation was performed every seven days.
3. Test Method 36 rats were divided into 6 administration groups (each group consisted of 6 samples): (1) control; (2) pitavastatin calcium (10 mg/kg) alone; (3) K-134 (100 mg/kg) alone; (4) cilostazol (100 mg/kg) alone; (5) combination of pitavastatin calcium (10 mg/kg) and K-134 (100 mg/kg); and (6) combination of pitavastatin calcium (10 mg/kg) and cilostazol(100 mg/kg).
Pitavastatin was orally administered once daily at 4.00 pm for 14 days repeatedly, and K-134 or cilostazol was orally administered twice daily at 9.00 am and 4.00 pm for 14 days repeatedly. […] Blood sample was taken from each group after 22-hours fasting following the final administration in the afternoon, and plasma TG was measured. […]

[2] = diabetic rat; cited from earlier work
[3] = normal rat; cited from earlier work
[4] = clinical report, cited from earlier work

Compound	hypotriglyceridemic effect in vivo [1]	hypotriglyceridemic effect [2]	hypotriglyceridemic effect [3]	TG level ([4]; 4-week administration in a subject)	TG level ([4]; 24-week administration)
O=C(NCCCOc1ccc2[nH]c(=O)ccc2c1)N(C1CC1)[C@@H]1CCCC[C@H]1O [K-134, (−)-6-[3[3-cyclopropyl-3-[(1R, 2R)-2-hydroxycyclohexyl]ureido]-propoxy]-2-(1H)-quinolinone]	little hypotriglyceridemic effect	–	–	–	–
O=C1CCc2cc(OCCCCc3nnnn3C3CCCCC3)ccc2N1 [cilostazol]	little hypotriglyceridemic effect	hypotriglyceridemic effect is reported	unstable	lowered	return to former value after transient elevation
O=C(O)C[C@H](O)C[C@H](O)/C=C/c1c(C2CC2)nc2ccccc2c1-c1ccc(F)cc1 [pitavastatin, (3R, 5S, 6E)-7-[2-cycloropyl-4-(4-fluorophenyl)-3-quinolyl]-3,5-dihydroxy-6-heptenoic acid]	extremely weak	–	–	–	–
